The results in this text go back to ChEMBL document CHEMBL1149789, “SAR and QSAR studies: modelling of new DAPY derivatives” (Eur J Med Chem, 2008).

As usually defined, the EC50 is the concentration that produces a half-maximal response. A lower EC50 goes with greater potency. The logP is a log measure of how a compound divides between an organic and an aqueous phase.

For data set [1], the system named is Human immunodeficiency virus. As to the kind of experiment: Inhibition of HIV reverse transcriptase.
Data set [2] in a line: Partition coefficient, log P of the compound. The format is physicochemical. Particulars: octanol/water.

As for `Cc1cc(C#N)cc(C)c1Oc1nc(Nc2ccc(C#N)cc2)nc(N)c1Br` [ETRAVIRINE], the midpoint of the response in data set [1], the EC50, lay at 1.4 nM. The logP in data set [2] (read-out: logP) was determined as 1.82.

`Cc1cc(C#N)cc(C)c1Oc1ccnc(Nc2ccc(C#N)cc2)n1` yielded an EC50 in data set [1] of 1.1 nM. The logP in data set [2] (read-out: logP) is 1.64.

In data set [1], `Cc1cc(C)c(Nc2nc(Nc3ccc(C#N)cc3)ncc2C#N)c(C)c1` displayed a 50% effective concentration (EC50) of 1 nM. For the same compound, the lipophilicity (logP) in data set [2] (read-out: logP) worked out at 1.74.

Consider `Cc1cc(Br)cc(C)c1Sc1ccnc(Nc2ccc(C#N)cc2)n1`, for which the EC50 in data set [1] is 5.7 nM. Moreover, the logP in data set [2] (read-out: logP) turned out to be 2.31.

`Cc1cc(C#N)cc(C)c1Oc1nc(Nc2ccc(C#N)cc2)ncc1Br` returned an EC50 in data set [1] of 1.4 nM. In data set [2] (read-out: logP), the lipophilicity (logP) stood at 1.82.

In data set [1], `Cc1cc(Br)cc(C)c1Nc1ccnc(Nc2ccc(C#N)cc2)n1` yielded an EC50 of 2.3 nM. Also, in data set [2] (read-out: logP), the log partition coefficient (logP) came to 1.79.

Turning to `Cc1cc(C)c(Sc2ccnc(Nc3ccc(C#N)cc3)n2)c(C)c1`, the EC50 in data set [1] turned out to be 3.6 nM. In data set [2] (read-out: logP), the logP turned out to be 2.42.

For `Cc1cc(C#N)cc(C)c1Nc1ccnc(Nc2ccc(C#N)cc2)n1`, the EC50 in data set [1] was 0.4 nM. For the same compound, the logP in data set [2] (read-out: logP) amounted to 1.47.

Turning to `Cc1cc(C)c(Oc2ccnc(Nc3ccc(C#N)cc3)n2)c(C)c1`, the EC50 in data set [1] came to 2.9 nM. Moreover, the logP in data set [2] (read-out: logP) came out at 2.07.

In data set [1], `Cc1cc(C#N)cc(C)c1Nc1nc(Nc2ccc(C#N)cc2)ncc1C#N` showed an EC50 of 0.5 nM. Also, the logP in data set [2] (read-out: logP) is 1.31.

`Cc1cc(C)c(Nc2ccnc(Nc3ccc(C#N)cc3)n2)c(C)c1` [DAPIVIRINE] yielded an EC50 in data set [1] of 1 nM. For the same compound, the logP in data set [2] (read-out: logP) was 1.9.

For `Cc1cc(C)c(Nc2nc(Nc3ccc(C#N)cc3)ncc2Cl)c(C)c1`, it took 2.7 nM to reach a half-maximal effect in data set [1] (EC50). Moreover, the logP in data set [2] (read-out: logP) was 1.8.

`C=Cc1cnc(Nc2ccc(C#N)cc2)nc1Nc1c(C)cc(C#N)cc1C` gave an EC50 in data set [1] of 2.5 nM. Further, in data set [2] (read-out: logP), the logP was determined as 2.36.

`Cc1cc(C#N)cc(C)c1Nc1nc(Nc2ccc(C#N)cc2)ncc1Cl` showed an EC50 in data set [1] of 1.2 nM. Moreover, in data set [2] (read-out: logP), the logP is 1.37.

Turning to `Cc1cc(C#N)cc(C)c1Oc1nc(Nc2ccc(C#N)cc2)ncc1Cl`, the EC50 in data set [1] came out at 1.4 nM. The logP in data set [2] (read-out: logP) stood at 1.54.

For `Cc1cc(C)c(Nc2nc(Nc3ccc(C#N)cc3)ncc2Br)c(C)c1`, in data set [1], the EC50 stood at 5.5 nM. Besides, the logP in data set [2] (read-out: logP) came out at 2.07.

For the compound `Cc1cccc(C)c1Nc1ccnc(Nc2ccc(C#N)cc2)n1`, the EC50 in data set [1] was 0.7 nM. The logP in data set [2] (read-out: logP) stood at 1.74.

`Cc1cc(Cl)cc(C)c1Nc1ccnc(Nc2ccc(C#N)cc2)n1` returned an EC50 in data set [1] of 2.1 nM. Besides, the logP in data set [2] (read-out: logP) is 1.52.

Turning to `C#Cc1cc(C)c(Oc2ccnc(Nc3ccc(C#N)cc3)n2)c(C)c1`, in data set [1], the EC50 came out at 5.5 nM. The logP in data set [2] (read-out: logP) stood at 1.79.

In data set [1], `Cc1cc(Br)c(Nc2ccnc(Nc3ccc(C#N)cc3)n2)c(Br)c1` yielded an EC50 of 0.7 nM. For the same compound, the logP in data set [2] (read-out: logP) was found to be 1.69.

Consider `N#Cc1ccc(Nc2nccc(Nc3c(Br)cc(F)cc3Br)n2)cc1`, for which, in data set [1], the midpoint of the response, the EC50, lay at 0.6 nM. Also, the logP in data set [2] (read-out: logP) was 0.94.

As for `Cc1cc(C)c(Nc2nc(Nc3ccc(C#N)cc3)ncc2C)c(C)c1`, the EC50 in data set [1] came to 1.7 nM. Besides, the logP in data set [2] (read-out: logP) came to 2.17.

For the compound `Cc1cnc(Nc2ccc(C#N)cc2)nc1Nc1c(C)cc(C#N)cc1C`, in data set [1], a half-maximal response (EC50) required 0.8 nM. The logP in data set [2] (read-out: logP) came to 1.74.

For `Cc1cc(Br)cc(C)c1Oc1ccnc(Nc2ccc(C#N)cc2)n1`, in data set [1], a half-maximal response (EC50) required 2.9 nM. For the same compound, the logP in data set [2] (read-out: logP) turned out to be 1.97.

As to `N#Cc1ccc(Nc2nccc(Nc3c(Cl)cc(Cl)cc3Cl)n2)cc1`, the response in data set [1] was half-maximal at 0.7 nM (EC50). Besides, the logP in data set [2] (read-out: logP) worked out at 0.77.

`Cc1cc(Cl)cc(Cl)c1Nc1ccnc(Nc2ccc(C#N)cc2)n1` returned an EC50 in data set [1] of 1 nM. The logP in data set [2] (read-out: logP) was 1.14.

`C#Cc1cnc(Nc2ccc(C#N)cc2)nc1Nc1c(C)cc(C)cc1C`: the logP in data set [2] (read-out: logP) stood at 1.89.

`CC(=O)Nc1cnc(Nc2ccc(C#N)cc2)nc1Oc1c(C)cc(C#N)cc1C`: in data set [2] (read-out: logP), the logP is -0.12.

Consider `Cc1cc(C#N)cc(C)c1Oc1nc(Nc2ccc(C#N)cc2)ncc1[N+](=O)[O-]`, for which the concentration for a half-maximal effect (EC50) in data set [1] was 18 nM. Moreover, in data set [2], the lipophilicity (logP) is recorded as -0.98.

Consider `Cc1cc(C#N)cc(C)c1Oc1nc(Nc2ccc(C#N)cc2)ncc1N`, for which, in data set [1], the EC50 was determined as 1 nM. In data set [2] (read-out: logP), the logP turned out to be 0.05.

Regarding `Cc1cc(C#N)cc(C)c1Nc1nc(Nc2ccc(C#N)cc2)ncc1Br`, in data set [1], a half-maximal effect (EC50) was put at 0.4 nM. In addition, the log partition coefficient (logP) in data set [2] (read-out: logP) was determined as 1.64.
